Laboratory results from PubChem BioAssay (NCI).
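96-well plates; 48 h exposure; 5 concentrations. Endpoints by linear interpolation between flanking doses. Not reached: highest tested concentration assigned. Definition used: TGI = concentration required for complete inhibition of growth.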 Where a SMILES comes first, the peptide text is derived from it. [ ]: non-standard residue; d: D form. The star is where a group is joined. Cbz = O=C(OCc1ccccc1)*; Boc = CC(C)(C)OC(=O)*; Aib = CC(C)(N)C(=O)O; OBn = c1ccc(CO*)cc1; OtBu = CC(C)(C)O*; βAla = NCCC(=O)O

What was measured:
Assay in all cases: growth of human tumour cells (NCI), 48 h
KM12 colon = test system: KM12 colon
SK-MEL-2 melanoma = test system: SK-MEL-2 melanoma
SR leukemia = test system: SR leukemia
RPMI-8226 leukemia = test system: RPMI-8226 leukemia
OVCAR-5 ovarian = test system: OVCAR-5 ovarian
EKVX NSCLC = test system: EKVX NSCLC
NCI-H226 lung = test system: NCI-H226 lung
CCRF-CEM leukemia = test system: CCRF-CEM leukemia
SF-539 CNS = test system: SF-539 CNS
NCI-H460 lung = test system: NCI-H460 lung

Row | SMILES | TGI (KM12 colon) [µM] | TGI (SK-MEL-2 melanoma) [µM] | TGI (SR leukemia) [µM] | TGI (RPMI-8226 leukemia) [µM] | TGI (OVCAR-5 ovarian) [µM] | TGI (EKVX NSCLC) [µM] | TGI (NCI-H226 lung) [µM] | TGI (CCRF-CEM leukemia) [µM] | TGI (SF-539 CNS) [µM] | TGI (NCI-H460 lung) [µM]
1 | O=C1[C@@H]2Cc3c([nH]c4ccccc34)C(C3CCCCC3)N2C(=O)[C@@H]2CCCN12 (stereo partly drawn) | 58.4 | 39.7 | 46.8 | 51 | > 100 | > 100 | > 100 |  |  | 
2 | CSc1nncc(-c2cc3c(c(SC)n2)CCC3)n1 | > 100 | > 100 |  | > 100 | > 100 | > 100 | > 100 | > 100 |  | 
3 | COc1ccc(OC)c2cc(Cc3ccc(N(C)C)cc3)c(=O)c(Cc3ccc(N(C)C)cc3)cc12 | > 100 |  |  | 84.5 | > 100 | > 100 | > 100 | > 100 | > 100 | > 100
4 | COC(=O)[C@@H]1N2C(=S)N(c3ccccc3)C(=O)[C@H]2SC1(C)C | > 100 | > 100 | > 100 | > 100 | > 100 | > 100 | > 100 |  | > 100 | > 100
5 | OCCN=C1Nc2ccc(Cl)cc2C(=S)N2CSC[C@@H]12 | > 100 | > 100 | > 100 | > 100 | > 100 |  |  |  | > 100 | > 100
6 | CC(C)(C)OC(=O)CC(NC(=O)OC(C)(C)C)C(=O)NC(CCCCNC(=O)OCc1ccccc1)C(=O)NC(C)(C)C(=O)NCCC(=O)OCc1ccccc1 (stereo not drawn) (Boc-D(OtBu)K(Cbz)[Aib][βAla]-OBn; configuration not given here) | > 100 |  | > 100 | > 100 | > 100 | > 100 | > 100 |  | > 100 | > 100
7 | CCCCCCCCCCCCCCCCNc1nc(=O)n(C2CC(O)C(CO)O2)cc1F (stereo not drawn) | 34 | 40.3 | 26.3 | 37.6 | 47.6 | 30.9 | 10.8 |  | 11.4 | 27.3
8 | COC(=O)C(C)Sc1nc2cc(Cl)ccc2s1 (stereo not drawn) | > 100 |  |  | > 100 | > 100 | > 100 | > 100 | > 100 | > 100 | > 100
9 | CC(C)(C)OC(=O)N1C(OP(=O)(Oc2ccccc2)Oc2ccccc2)=COc2cccnc21 | > 100 | 55.7 | 82.9 | 53.2 | > 100 | > 100 | > 100 |  | > 100 | 94
10 | O=C(N=Nc1ccccc1Br)NNc1ccccc1Br |  | > 100 | > 100 | > 100 | > 100 |  | > 100 | > 100 |  | > 100
11 | O=C(NCCO)c1ccc(Cl)cc1 | > 100 | > 100 | > 100 |  | > 100 | > 100 | > 100 | 90.2 |  | > 100
12 | O=C(NNC(=S)Nc1ccccc1)c1csc(NC(=S)NC2CCCCC2)n1 | > 100 | > 100 | > 100 | > 100 | > 100 | > 100 |  | > 100 | > 100 | 
13 | O=C1NC(N/N=C\c2ccccc2)=N/C1=C/c1ccc(Cl)cc1 | 95.5 | 82.9 | 40.1 | 59.7 | 94.1 | 67.4 | 43.3 |  | 53.8 | 53.5
14 | COC(=O)c1cncc2c1CC1C3(C(=O)OC)C=NC(C4C(CO)=CCC43)C21C (stereo not drawn) | > 100 | > 100 | > 100 |  | > 100 | > 100 | > 100 | > 100 | > 100 | > 100
15 | Cc1[nH]c(-c2ccccc2)c(-c2ccc(Cl)cc2)c1C(=O)ONC(=O)c1ccccc1 | > 48.3 | 11.2 |  | > 48.4 | 20 | 9.77 | 11.6 | > 21.8 | 6.02 | 5.11
16 | C/C=C/[C@H]1O[C@@](OC)([C@@H](C)[C@H](O)[C@H](C)[C@H]2OC(=O)/C(OC)=C/C(C)=C/[C@@H](C)[C@@H](O)[C@@H](C)[C@@H](O)[C@H](C)C/C(C)=C/C=C/[C@@H]2OC)CC(OC2CC(O)C(OC(N)=O)C(C)O2)[C@@H]1C (stereo partly drawn) | 12.7 | 1.15 |  | < 0.0378 | 17 | 12.8 | 14.1 |  | < 0.01 | 4.17
17 | COc1cc2ccnc3c2c(c1O)N(C)C=C3 | 40.2 | 33.9 | > 100 | > 100 | 33.9 | 33.4 | 37.4 | > 100 |  | > 66
18 | NC(CCCCNC(=O)OCc1ccccc1)C(=O)NC(CCCCNC(=O)OCc1ccccc1)C(=O)ON1C(=O)CCC1=O (stereo not drawn) | > 100 | > 100 | > 100 | > 100 | > 100 | > 100 | > 100 | > 100 |  | > 100
19 | OC1OC(c2ccco2)C(F)(F)C(F)(F)C1(F)F (stereo not drawn) | > 100 | > 100 |  | > 100 | > 100 | > 100 | > 100 | > 100 | > 100 | > 100
20 | CN1C2CC(=O)CC1[C@@H]1OC(c3ccccc3)O[C@H]21 (stereo partly drawn) | > 100 | > 100 | > 100 | > 100 |  | > 100 | > 100 | > 100 | > 100 | > 100
21 | CCCCSc1n/c(=C\c2ccc(N(C)C)cc2)c2nnnn12 | > 100 | > 100 | > 100 | > 100 | > 100 | > 100 | > 100 |  | > 100 | > 100
22 | CCOC(=O)c1c(N2CCOCC2)[nH]c(=O)c(C(c2ccc(OC)cc2)c2c(O)c(C(=O)OCC)c(N3CCOCC3)[nH]c2=O)c1O | > 100 |  | > 100 | > 100 | > 100 | > 100 | > 100 | > 100 | > 100 | > 100
23 | CSC(=NC1=NC(C(F)(F)F)(C(F)(F)F)N=C(c2ccccc2)O1)SC | 20.7 | 55.9 | 76.1 |  | 82.3 | 42.3 | 83.9 | > 100 | > 100 | > 100
